We go through 3 compounds from patent publication EP0894794A1, “Optical isomers of cloperastine” (AESCULAPIUS FARMACEUTICI S.r.l., priority 1997, dated 1999).

SMILES strings stand for the structures. Marks after values point to notes of the source that are not given here.

The test system of one data set is rat. Briefly: acute toxicity (LD50), rat. Conditions: HCl, female rat.
Data set [1] is described as follows: acute toxicity (LD50), rat. Conditions: rat, in vivo, ip, LD50 and 95% conf. lim., HCl; female rat; intraperit.
For data set [2], the system named is mouse. Briefly: test of potentiation of pentylenetetrazole (interaction with central stimulants). To be noted: fendizoate, dose 150 mg/kg; for % variation: mean score vs. vehicle controls; for Mean score: scores 0 to 4 after intraperitoneal 50 mg/kg PTZ, mouse, 20 animals.
Data set [3] concerns mouse. Briefly: narcosis from hexobarbital (interaction with central depressants). To be noted: fendizoate; for Duration of sleep: mean ± SD after intraperitoneal 80 mg/kg sodium hexobarbital, mouse; for % variation: sleeping time vs. vehicle controls.
In a further data set the test system is guinea pigs. Briefly: citric acid aerosol coughing test. To be noted: for ED50 / inhibition at 1 mg/kg / inhibition at 5 mg/kg / inhibition at 10 mg/kg: Cavia porcellus, inhaled or nasal; for inhibition at 1 mg/kg / inhibition at 5 mg/kg / inhibition at 10 mg/kg: read-out: inhib. %; for coughs in 3 min mean + SD: fendizoate, guinea pigs, 8 animals.
A short description of data set [4]: acute toxicity (LD50), mouse. To be noted: mouse, in vivo, LD50 and 95% conf. lim., HCl, female mouse.
For data set [5], the system named is mouse. Nature of the data set: acute toxicity (LD50), mouse. Conditions: HCl, female mouse.

A word on the LD50: it is the dose expected to kill half of the subjects tested. Read a high LD50 as lower toxicity. One may read the ED50 as the dose that gives a 50% effect, or the effect in half of the subjects. Lower therefore signals greater potency. Take `Clc1ccc(C(OCCN2CCCCC2)c2ccccc2)cc1` (single isomer, unassigned) [L-CLO, L(-) cloperastine]: in the data set on rat (oral), the “LD50 and 95% conf. lim.” value is recorded as 1226 (981-1532) mg/kg. Besides, the LD50 amounted to 195 mg/kg in data set [1]; 171 mg/kg in data set [4] (ip, intraperit.); 512 mg/kg in data set [4] (po). The “% variation” value with mouse [2] (150 mg/kg) is listed as 36.4%; with mouse [3] (dose 5 mg/kg, 5 mg/kg) it was “+16.5%”; with mouse [3] (dose 15 mg/kg, 15 mg/kg) it was “+102.3** %”; in the data set with mouse [3] (dose 50 mg/kg, 50 mg/kg), “+29.0(°) %”; with mouse [3] (dose 150 mg/kg, 150 mg/kg), -44.1** %. In addition, the Mean score with mouse [2] was found to be 1.50. The Duration of sleep in the data set with mouse [3] (dose 5 mg/kg) turned out to be 38.90 ± 7.89 min; in the data set with mouse [3] (dose 15 mg/kg), 67.60 ± 16.75 min; in the data set with mouse [3] (dose 50 mg/kg), 43.10 ± 9.07 min; in the data set with mouse [3] (dose 150 mg/kg) it was 18.70 ± 2.87 min. Also, in the data set with guinea pigs, it took a dose of 4.23 mg/kg to reach the 50% effect level (ED50). Further, in the data set with guinea pigs, the inhibition at 1 mg/kg stood at 32.7%. Also, the inhibition at 5 mg/kg with guinea pigs stood at 45.4%. Also, the inhibition at 10 mg/kg with guinea pigs was determined as 66.3%. The “coughs in 3 min mean + SD” value in the data set with guinea pigs (dose 1 mg/kg) was determined as 44.5 ± 8.65; in the data set with guinea pigs (dose 5 mg/kg), 36.1 ± 5.24; with guinea pigs (dose 10 mg/kg), 22.3 ± 5.20.

For the compound `Clc1ccc(C(OCCN2CCCCC2)c2ccccc2)cc1` (racemic) [DL-CLO, DL-cloperastine], the “% variation” value with mouse [2] is listed as 122.7%; in the data set on mouse [3] (dose 5 mg/kg) it was “+61.1**(°°) %”; in the data set on mouse [3] (dose 15 mg/kg) it was “+36.2**(°) %”; in the data set on mouse [3] (dose 50 mg/kg) it was -22.8(°°) %; with mouse [3] (dose 150 mg/kg), -68.9** %. Besides, in the data set on mouse [2], the Mean score is recorded as 2.45**(°°). The Duration of sleep with mouse [3] (dose 5 mg/kg) turned out to be 53.80 ± 9.05 min; in the data set on mouse [3] (dose 15 mg/kg) it was 45.50 ± 6.39 min; with mouse [3] (dose 50 mg/kg), 25.80 ± 7.30 min; in the data set on mouse [3] (dose 150 mg/kg), 10.40 ± 4.18 min. This compound came in with an ED50 with guinea pigs of 7.22 mg/kg. Besides, in the data set with guinea pigs, the inhibition at 1 mg/kg was found to be 13.5%. For the same compound, the inhibition at 5 mg/kg with guinea pigs was determined as 41.9%. In addition, the inhibition at 10 mg/kg in the data set on guinea pigs worked out at 57.2%. In addition, the “coughs in 3 min mean + SD” value in the data set with guinea pigs (dose 1 mg/kg) is recorded as 57.7 ± 8.21; in the data set with guinea pigs (dose 5 mg/kg) it was 38.4 ± 5.33; in the data set on guinea pigs (dose 10 mg/kg), 28.3 ± 4.50.

Take `Clc1ccc(C(OCCN2CCCCC2)c2ccccc2)cc1` (single isomer, unassigned) [D-CLO, D(+) cloperastine]: the “LD50 and 95% conf. lim.” value in the data set on rat (intraperit.) is 106 (82-138) mg/kg; with rat (oral), 602 (474-764) mg/kg; in the data set on mouse [5] (intraperit.), 96 (74.4-123.8) mg/kg; with mouse [5] (oral) it was 269 (219-331) mg/kg. Further, the “% variation” value is reported as 186.4% in the data set with mouse [2] (150 mg/kg); “+114.7**(°°) %” in the data set on mouse [3] (dose 5 mg/kg, 5 mg/kg); “+37.1*(°) %” in the data set on mouse [3] (dose 15 mg/kg, 15 mg/kg); -32.9*(°°) % in the data set on mouse [3] (dose 50 mg/kg, 50 mg/kg); -73.4**(°°) % in the data set on mouse [3] (dose 150 mg/kg, 150 mg/kg). Further, the Mean score in the data set with mouse [2] is given as 3.15**(°°). Moreover, the Duration of sleep with mouse [3] (dose 5 mg/kg) is 71.70 ± 10.92 min; in the data set on mouse [3] (dose 15 mg/kg), 45.80 ± 8.67 min; in the data set with mouse [3] (dose 50 mg/kg), 22.40 ± 6.37 min; in the data set with mouse [3] (dose 150 mg/kg), 8.90 ± 3.01 min.
